≈ marks a conversion by molar mass, not a printed value.
Experiments:
Plasmodium falciparum [1] = assay: (§1) Inhibitory concentration against […] Plasmodium falciparum W-2; assay type: functional
Plasmodium falciparum [2] = assay: Inhibitory concentration against […] Plasmodium falciparum W2; assay type: functional
Plasmodium falciparum [3] = assay: (§2) Inhibitory concentration against chloroquine-sensitive Plasmodium falciparum D-8; assay type: functional
Plasmodium falciparum [4] = assay: as §1; assay type: functional, organism-based
Plasmodium falciparum [5] = assay: as §2; assay type: functional, organism-based
[6] = Plasmodium falciparum, read-out: IC10
[7] = Plasmodium falciparum, read-out: IC90
[8] = Plasmodium falciparum, read-out: IC50

Compound	IC10 (Plasmodium falciparum [1])	IC90 (Plasmodium falciparum [2])	IC10 (Plasmodium falciparum [3])	IC90 (Plasmodium falciparum [3])	IC50 (Plasmodium falciparum [4])	IC50 (Plasmodium falciparum [5])	IC10 (Plasmodium falciparum [1]; [6])	IC90 (Plasmodium falciparum [2]; [7])	IC10 (Plasmodium falciparum [3]; [6])	IC90 (Plasmodium falciparum [3]; [7])	IC50 (Plasmodium falciparum [4]; [8])	IC50 (Plasmodium falciparum [5]; [8])
COC1CCCC(OO)CO1 (stereo in doubt)	11.4131 µg/mL (≈ 70.4 µM)	20.93322 µg/mL (≈ 129 µM)	2.65375 µg/mL (≈ 16.4 µM)	38.08448 µg/mL (≈ 235 µM)	15.45681 µg/mL (≈ 95.3 µM)	10.0532 µg/mL (≈ 62 µM)						
C[C@@H]1CC[C@H]2[C@@H](C)C(=O)O[C@@H]3O[C@@]4(C)CC[C@@H]1[C@]32OO4 [ARTEMISININ]							0.00049 µg/mL (≈ 0.00174 µM)	0.00105 µg/mL (≈ 0.00372 µM)	0.00032 µg/mL (≈ 0.00113 µM)	0.00213 µg/mL (≈ 0.00754 µM)	0.00072 µg/mL (≈ 0.00255 µM)	0.00083 µg/mL (≈ 0.00294 µM)
C1CC2COC(C1)OO2 (stereo unspecified)									1.34 µg/mL (≈ 10.3 µM)	4.47 µg/mL (≈ 34.3 µM)		2.45 µg/mL (≈ 18.8 µM)
CCN(CC)CCCC(C)Nc1ccnc2cc(Cl)ccc12 (stereo unspecified) [CHLOROQUINE]							0.0527 µg/mL (≈ 0.165 µM)	0.0931 µg/mL (≈ 0.291 µM)	0.00201 µg/mL (≈ 0.00628 µM)	0.00361 µg/mL (≈ 0.0113 µM)		
OC(c1cc(C(F)(F)F)nc2c(C(F)(F)F)cccc12)C1CCCCN1 (stereo unspecified) [MEFLOQUINE]							0.00117 µg/mL (≈ 0.00309 µM)	0.00373 µg/mL (≈ 0.00986 µM)	0.00122 µg/mL (≈ 0.00322 µM)	0.0385 µg/mL (≈ 0.102 µM)	0.00209 µg/mL (≈ 0.00552 µM)	0.00686 µg/mL (≈ 0.0181 µM)
COC1CCCC(OO)CO1 (single isomer, unassigned; isomer A)	3.33249 µg/mL (≈ 20.5 µM)				6.52488 µg/mL (≈ 40.2 µM)			12.8 µg/mL (≈ 78.8 µM)	2.46 µg/mL (≈ 15.2 µM)	22.8 µg/mL (≈ 141 µM)		7.49 µg/mL (≈ 46.2 µM)
